From US20230017266A1, “Cyclooxygenase-2 Inhibition for the Treatment of SAA-high Asthma” (THE USA, AS REPRESENTED BY THE SECRETARY, DEPT. OF HEALTH …, priority 2019, published 2023)

Tests used:
Format in all cases: cell-based, human
Details in all cases: diclofenac 1 mM, 24 h
CD14^+ monocytes [1] = assay: HDL+SAA1-induced cytokine secretion by ex vivo CD14+ monocytes (ELISA)
CD14^+ monocytes [2] = assay: PGE2 and TXB2 secreted by CD14+ monocytes cultured with HDL+SAA1
Excerpt: FIG. 4 illustrates that HDL enriched with serum amyloid A (HDL+SAA1) induces cytokine secretion from CD14+ monocytes via a P2X7R/NF-κB/COX-2-dependent pathway. a, Volcano plot showing differentially expressed mRNA transcripts from classical CD14+/CD16− monocytes from asthmatics (n=10) that were stimulated ex vivo with or without HDL enriched with recombinant human SAA1 (HDL+SAA1). Additional experiments utilized ex vivo cultures of CD14^+ monocytes isolated by flow cytometry from healthy subjects to characterize the HDL+SAA1-mediated P2X7R/NF-κB/COX-2-dependent pathway, except where indicated. b, PTGS2 mRNA levels were quantified by qRT-PCR in cells stimulated with normal HDL or HDL+SAA1 and presented as RQ (relative quantification). n=7 subjects, pairwise comparisons of all groups vs. media, repeated measures one-way ANOVA with Dunnett's multiple comparisons test. c, Western blot showing COX-1 and COX-2 protein in cells stimulated with normal HDL or HDL+SAA1. GAPDH is shown as a control for equivalency of protein loading. The Western blot shown is representative of 3 independent experiments using cells from different subjects. […]

CD14^+ monocytes [3] = assay: HDL+SAA1-induced cytokine secretion by ex vivo CD14+ monocytes (ELISA); remark: listed apart in the source
Method: Isolation of Peripheral Blood Monocytes. Peripheral blood monocytes were isolated using a two-step process. Peripheral blood was diluted with PBS at a 1:1 ratio, slowly overlaid onto 30 ml of Lymphoprep™ (catalog #07811, StemCell Technologies, Vancouver Canada) in a 50 ml conical tube, and centrifuged at 400×g for 25 min without braking. The peripheral blood mononuclear cell (PBMC) layer was carefully transferred to another 50 ml conical tube, washed with PBS, followed by two washes with FACS buffer (0.5 mM EDTA, 1% BSA, and 1% mouse serum in PBS). Monocytes subsets were identified and sorted by flow cytometry using the following antibodies: PE mouse anti-human CD45 clone HI30 (catalog #555483), BV421 mouse anti-human CD14 clone MφP9 (catalog #563743), and FITC mouse anti-human CD16 clone B73.1 (catalog #561308), and a FACS ARIA Fusion sorter equipped with 355, 407, 488, 532 and 640 nm LASER lines using FACS DIVA 8.0 software (all from BD Biosciences, San Jose, Calif.). The gating strategy identified a population of debris-free, single, live, ^SSCmoderate/high, CD45^+ cells from which CD14^+/CD16^− (classical), CD14^+/CD16^+ (intermediate), CD14^dim/CD16^+ (non-classical), and CD14^+ (classical and intermediate) cells were sorted and utilized for experiments, as indicated (Supplemental FIG. 4).
HDL+SAA1 Stimulation of Peripheral Blood Monocytes Subsets. […] As previously described, normal HDL was isolated from plasma obtained from healthy subjects by sequential KBr differential gradient ultracentrifugation at 330,000 g and extensive dialysis with 50 mM HEPES, 50 mM NaCL, 5 mM MgCl2 and 2 mM CaCl2, pH 7.0, at 4° C. Normal HDL was complexed with recombinant human serum amyloid A-1 at a 2:1 ratio by mixing and incubated at RT overnight to generate HDL+SAA1, which was filtered using a 100-kDa exclusion filter (Amicon Ultra Centrifuge Filters, Millipore, Darmstadt, Germany) to remove any uncomplexed SAA1. Normal HDL was also complexed with the amount of lipopolysaccharide (catalog # L4391, E. coli 0111:B4, y-irradiated, MilliporeSigma, St. Louis, Mo.) present in recombinant human SAA1. Additionally, classical CD14^+ monocytes were treated with the P2X7R antagonist, A438079, the IKK inhibitor, BAY-11-7082, the IKKβ (IKK-2) inhibitor, TPCA-1, or the selective COX-2 inhibitor, celexocib, all from MilliporeSigma(St. Louis, Mo.). Cells were also treated with the FPR2 antagonist, WRW4, or diclofenac from Tocris (Minneapolis, Minn.). The amount of IL-1β, IL-6, TNF-α and IL-10 secreted into cell culture supernatants was quantified using human DuoSet ELISA kits (R&D Systems) and data were acquired using a SpectraMax M2 spectrophotometer (Molecular Devices, San Jose, Calif.). Western blotting, as previously described^43, was performed using antibodies directed against COX-1 (catalog #160110) and COX-2 (catalog #160112), both from Cayman Chemical (Ann Arbor, Mich.). Equivalency of protein loading was established using an antibody directed against GAPDH (catalog #MAB5718) from R&D Systems (Minneapolis, Minn.). Western blots images were captured using an iBright FL1000 Western Blot Imaging System (ThermoFisher Scientific, Waltham, Mass.) and quantified using NIH ImageJ software (imagej.nih.gov). […]

Compound: O=C(O)Cc1ccccc1Nc1c(Cl)cccc1Cl [diclofenac, 2-[(2,6-dichlorophenyl)amino] benzeneacetic acid]
- HDL+SAA1-mediated secretion of IL-13 (CD14^+ monocytes [1]): significantly inhibited
- HDL+SAA1-induced increase in prostaglandin E2 (CD14^+ monocytes [2]): suppressed
- HDL+SAA1-induced increase in thromboxane B2 (CD14^+ monocytes [2]): suppressed
- HDL+SAA1-mediated secretion of IL-6 (CD14^+ monocytes [3]): significantly inhibited
- HDL+SAA1-mediated secretion of IL-10 (CD14^+ monocytes [3]): significantly inhibited
- HDL+SAA1-mediated secretion of TNF-α (CD14^+ monocytes [3]): significantly inhibited
